Consider 7 compounds from US6800651B2 (Eli Lilly and Company, priority 2000, dated 2004).

The target in one data set is mGlu2 receptor (Homo sapiens, UniProt Q14416). Nature of the data set: Potentiation of glutamate-induced increase in intracellular calcium with a mGluR2 expressing cell line (FLIPR). Details: expressed in transfected cells; host or cells: RGT cells (co-transfected with GLAST), stably transfected with Galpha15. Particulars: for Emax / Emax at 1 µM / Emax at 3 µM: read-out: % Maximal Response (mean ± SD, n = 2); for Emax at 1 µM: 1 μM compound, no agonist, glutamate series 30 μM to 10 nM; for Emax at 3 µM: 3 μM compound, Buffer (no agonist). Type of data set: cell-based. The protocol: Potentiation of Glutamate-Induced Increase in Intracellular Calcium with a mGluR2 Expressing Cell Line.
mGlu2 receptor, sequence (Q14416 19-872): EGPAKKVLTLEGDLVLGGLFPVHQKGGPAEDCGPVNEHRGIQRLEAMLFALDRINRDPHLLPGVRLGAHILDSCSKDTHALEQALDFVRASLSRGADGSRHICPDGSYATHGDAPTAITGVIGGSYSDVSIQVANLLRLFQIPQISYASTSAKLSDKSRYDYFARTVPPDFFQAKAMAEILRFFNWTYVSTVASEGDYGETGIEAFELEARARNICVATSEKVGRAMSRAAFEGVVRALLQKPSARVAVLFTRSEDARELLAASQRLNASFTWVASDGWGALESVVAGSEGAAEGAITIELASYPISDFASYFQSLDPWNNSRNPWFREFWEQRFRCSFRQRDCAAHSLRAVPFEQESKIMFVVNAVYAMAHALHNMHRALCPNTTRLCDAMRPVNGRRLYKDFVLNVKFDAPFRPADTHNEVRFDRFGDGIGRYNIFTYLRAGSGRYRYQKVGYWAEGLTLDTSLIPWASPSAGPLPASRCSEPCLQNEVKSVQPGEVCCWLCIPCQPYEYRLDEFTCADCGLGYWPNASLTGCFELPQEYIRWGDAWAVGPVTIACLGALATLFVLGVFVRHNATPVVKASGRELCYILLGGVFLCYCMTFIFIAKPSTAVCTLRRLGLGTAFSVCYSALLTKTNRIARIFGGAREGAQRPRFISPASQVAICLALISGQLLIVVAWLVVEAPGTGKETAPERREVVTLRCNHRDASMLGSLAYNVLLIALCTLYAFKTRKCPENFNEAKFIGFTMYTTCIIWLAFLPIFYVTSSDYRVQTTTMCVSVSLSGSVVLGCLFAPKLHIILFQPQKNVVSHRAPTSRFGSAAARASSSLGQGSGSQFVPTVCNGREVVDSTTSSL
Cell lines expressing human mGlu2 receptors were derived as previously described (Desai, Burnett, Mayne, Schoepp, Mol. Pharmacol. 48, 648-657, 1995) and cultured in DMEM with 5% dialyzed fetal bovine serum, 1 mM glutamine, 1 mM sodium pyruvate, 50 μg/ml Geneticin G418, and 0.2 mg/ml hygromycin B. Confluent cultures were passaged weekly. […] The RGT cell line expressing the mGluR2 receptors was stably transfected with the promiscuous G-protein, Galpha15 to change the signaling pathway to the mGlu2 receptor to one that could be easily measured through release of intracellular calcium. Thus, intracellular calcium levels were monitored before and after the addition of drugs on a Fluorometric Imaging Plate Reader (i.e. FLIPR, Molecular Devices). The following buffer was used throughout as an assay buffer: 10 mM KCl, 138 mM NaCl, 5 mM Ca Cl2, 1 mM MgCl2, 4 mM NaH2PO4, 10 mM Glucose, 10 mM HEPES, pH 7.4. Cells that had been plated 48 h prior at a density of 30-40,000 cells per well in a 96-well plate were loaded with a calcium-sensitive dye for 90 min at 25° C. Fluo-3 (2 mM in DMSO, Molecular Probes) were mixed with a equal volume of 10% pluronic acid in DMSO, and diluted to 8 μM into the buffer described above containing 10% fetal bovine serum to make the loading buffer. Following loading of the cells, the loading buffer was removed and replaced with assay buffer prior to drug addition and monitoring on the FLIPR.

The next data set concerns mice. Nature of the data set: Electroshock-induced seizures (tonic extensor seizures). Type of data set: in vivo, mouse. Particulars: electroshock 30 minutes later, percentage of mice protected from seizures. As for the experimental part:
Application of electrical stimulation by corneal electrodes to mice can induce tonic hindlimb-extensor seizures. Blockade of tonic extensor seizures induced by electroshock is considered predictive for drugs which block seizure propagation and may be effective in preventing various seizures in humans, including epileptic seizures.
Vehicle or a dose of a test drug are administered to groups of 5 to 10 mice each. Thirty minutes later, electroshock (10 mA, 0.2 sec duration) is administered by transcorneal electrodes. […] The data are reported as the percentage of mice which are protected from seizures.

Setting [1] is: 10 nM Glutamate + 1 μM compound.
The mark [2] stands for this setting: 30 nM Glutamate + 1 μM compound.
The mark [3] stands for this setting: 100 nM Glutamate + 1 μM compound.
Where [4] appears, read: 300 nM Glutamate + 1 μM compound.
Setting [5] is: 10 μM Glutamate + 1 μM compound.
Where [6] appears, read: 30 μM Glutamate + 1 μM compound.

Read-outs that look alike come from different tables or passages of the source.

On to `COc1ccccc1Oc1cccc(N(Cc2cccnc2)S(=O)(=O)CC(F)(F)F)c1` [Example 1, N-(3-(2-Methoxyphenoxy)phenyl)-N-(2,2,2-trifluoroethylsulfonyl)pyrid-3-ylmethylamine], for which the Emax was -0.3 ± 0.2% on mGlu2 receptor (setting [1]); 2.2 ± 1.3% on mGlu2 receptor (setting [2]); 1.5 ± 1.2% at mGlu2 receptor (setting [3]); 42.5 ± 4.3% on mGlu2 receptor (setting [4]); 79.2 ± 14.6% at mGlu2 receptor (1 μM Glutamate + 1 μM compound); 112 ± 10.3% on mGlu2 receptor (3 μM Glutamate + 1 μM compound). The Emax came out at 108 ± 10.7% on mGlu2 receptor (setting [5]) and 117 ± 4.3% at mGlu2 receptor (setting [6]). On mGlu2 receptor, the Emax at 1 µM was 0.1 ± 0.1%. The “% Maximal Glutamate Response (as defined by 30 μM Glutamate) mean ± SD” value at mGlu2 receptor (20 μM compound + 0.5 μM L-glutamate) came to 85.5 ± 5.8%; on mGlu2 receptor (20 μM compound alone) it was 2.3 ± 0.8%.

For the compound `O=S(=O)(CC(F)(F)F)N(Cc1cccnc1)c1ccc(Oc2ccccc2)cc1` [Example 22, N-(4-(Phenoxy)phenyl)-N-(2,2,2-trifluoroethylsulfonyl)pyrid-3-ylmethylamine], the Emax at mGlu2 receptor (1 nM APDC + 3 μM compound) is 0.1 ± 0.7%; on mGlu2 receptor (1 nM DCG IV + 3 μM compound), -0.1 ± 0.6%; on mGlu2 receptor (30 nM APDC + 3 μM compound), 0.5 ± 1.5%; on mGlu2 receptor (30 nM DCG IV + 3 μM compound) it was 11.1 ± 6.1%; on mGlu2 receptor (100 nM APDC + 3 μM compound), 0.2 ± 0.6%; on mGlu2 receptor (100 nM DCG IV + 3 μM compound), 83.3 ± 10.5%. The Emax at mGlu2 receptor (300 nM APDC + 3 μM compound) is 28.4 ± 1.7%; at mGlu2 receptor (300 nM DCG IV + 3 μM compound) it was 133 ± 5.5%; at mGlu2 receptor (1 μM APDC + 3 μM compound), 92 ± 3.4%; at mGlu2 receptor (1 μM DCG IV + 3 μM compound), 141 ± 5.9%; at mGlu2 receptor (3 μM APDC + 3 μM compound), 114 ± 0.8%; at mGlu2 receptor (3 μM DCG IV + 3 μM compound) it was 153 ± 2.8%. In addition, the Emax on mGlu2 receptor (10 μM APDC + 3 μM compound) came to 119 ± 4%; on mGlu2 receptor (10 μM DCG IV + 3 μM compound), 148 ± 1.5%; on mGlu2 receptor (30 μM APDC + 3 μM compound), 120 ± 10%; on mGlu2 receptor (30 μM DCG IV + 3 μM compound) it was 138 ± 7.1%. Further, the Emax at 3 µM on mGlu2 receptor (APDC series) is 4.7 ± 0.4%; at mGlu2 receptor (DCG IV series), 3.7 ± 1.4%.

Consider `N[C@@H](CCC(=O)O)C(=O)O` [Glutamate, L-glutamate, reference compound], for which the “% Maximal Glutamate Response (as defined by 30 μM Glutamate) mean ± SD” value at mGlu2 receptor (0.5 μM L-glutamate alone) is recorded as 1.9 ± 1.0%.

Take `O=S(=O)(CC(F)(F)F)N(Cc1cccnc1)c1cccc(Oc2ccccc2O)c1` [Example 23, N-(3-(2-Hydroxyphenoxy)phenyl)-N-(2,2,2-trifluoroethylsulfonyl)pyrid-3-ylmethylamine]: the melting point (as a rule, the temperature, or range, at which the solid turns liquid) lay in the range of 57.5 to 60 °C.

As for `CCS(=O)(=O)N(Cc1cccnc1F)c1ccc(Oc2ccc(F)cc2F)cc1` [Example 615, N-(4-(2,4-Difluorophenoxy)phenyl)-N-(ethanesulfonyl)-2-fluoropyrid-3-ylmethylamine], the melting point fell in the range of 110 to 112 °C.

`CCS(=O)(=O)N(Cc1cccnc1)c1cccc(-c2ccc(C#N)cc2)c1` [Example 590]: the “Percent Protection” value with mice (30 mg/kg ip) was 60%; with mice (100 mg/kg ip), 100%.

For the compound `COc1ccccc1Oc1ccc(N(Cc2cccnc2)S(=O)(=O)CC(F)(F)F)cc1Cl` [Example 9, N-(4-(2-Methoxyphenoxy)-3-chlorophenyl)-N-(2,2,2-trifluoroethylsulfonyl)pyrid-3-ylmethylamine], the Emax stood at 2.4 ± 0.3% on mGlu2 receptor (setting [1]); 4.7 ± 0.4% at mGlu2 receptor (setting [2]); 20.5 ± 4.3% at mGlu2 receptor (setting [3]); 60 ± 10.6% on mGlu2 receptor (setting [4]); 93.1 ± 2.5% on mGlu2 receptor (1 μM Glutamate + 1 μM compound); 102 ± 8.1% on mGlu2 receptor (3 μM Glutamate + 1 μM compound). Besides, the Emax was 103 ± 6.2% at mGlu2 receptor (setting [5]) and 108 ± 12.3% at mGlu2 receptor (setting [6]). Moreover, at mGlu2 receptor, the Emax at 1 µM stood at 4.2 ± 2.7%.
